Measurements from patent US4530840A, “Injectable, long-acting microparticle formulation for the delivery of anti-inflammatory agents” (priority 1982, dated 1985).

Key:
[1] = Saturation solubility in 50 wt % aqueous ethanol; type: physicochemical; settings: organic solvent or mixture, 50 wt % of aqueous ethanol
[2] = In vitro release / dissolution of methylprednisolone acetate in 50 wt % aqueous ethanol at 37° C.; type: physicochemical; settings: unencapsulated
Method: The in vitro release of methylprednisolone acetate from microparticles into a receiving fluid comprising 50 wt % of aqueous ethanol maintained at 37° C. was measured.
Triplicate samples of 20 mg of microparticles were weighed and each sample was placed in an 8-oz bottle containing 150 mL of 50 wt % aqueous ethanol. […] Next, the bottles were sealed with a thin sheet of Teflon and a screw cap to prevent evaporation. The bottles were then placed in an Eberbach shaker bath oscillating at 120 cycles/min and maintained at 37° C. The amount of drug released from the microparticles as a function of time was measured by determining the absorbance of the aqueous ethanol receiving fluid at 247 nm and by using the following equation based on Beer's Law.
methylprednisolone acetate in g/ml.

solubility [1]: > 3000 µg/mL
dissolution complete [2]: 30 min
Structure (SMILES): CC(=O)OCC(=O)[C@@]1(O)CC[C@H]2[C@@H]3C[C@H](C)C4=CC(=O)C=C[C@]4(C)[C@H]3[C@@H](O)C[C@@]21C [Methylprednisolone acetate, 6α-methylprednisolone acetate]
